Values of other authors in patent US20170151272A1, “A NOVEL PHARMACEUTICAL COMPOSITION OF […] RIBAVIRIN” (SANOVEL ILAC SANAYI VE TICARET ANONIM SIRKETI, priority 2014, published 2017).

Tested on: chronic hepatitis C (CHC) infections
Settings: ribavirin alone

## 1-β-Dribofuranosyl-1H-1,2,4-triazole-3-carboxamide [Ribavirin]
  sustained virologic response: did not produce any sustained virologic response
During or after therapy
  HCV RNA levels: did not reduce
During the course of treatment, some patients with CHC
  alanine aminotransferase (ALT) levels: normalize W201 alanine aminotransferase (ALT) levels transiently
